We go through 18 molecules from patent publication US11414431B2, “Substituted pyrazolo[1,5-a]pyrimidines as TYK2 inhibitors” (Nimbus Lakshmi, Inc., priority 2018, dated 2022).

Sequence of human TYK2 (JH2domain-pseudokinase) (P29597 556-888): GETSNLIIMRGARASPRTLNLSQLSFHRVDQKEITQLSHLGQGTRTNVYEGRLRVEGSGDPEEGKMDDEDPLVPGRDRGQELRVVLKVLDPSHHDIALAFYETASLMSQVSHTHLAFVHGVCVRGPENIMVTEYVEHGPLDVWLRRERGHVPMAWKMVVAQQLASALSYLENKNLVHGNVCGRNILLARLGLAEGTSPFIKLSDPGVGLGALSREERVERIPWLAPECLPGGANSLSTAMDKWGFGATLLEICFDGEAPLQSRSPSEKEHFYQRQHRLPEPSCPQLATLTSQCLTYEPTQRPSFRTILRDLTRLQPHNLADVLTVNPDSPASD

The test deals with human TYK2 (JH2domain-pseudokinase) (Homo sapiens (Human), UniProt P29597). Description: TYK2 JH2 Domain Binding Assay (KINOMEscan). Conditions: 11-point 3-fold dilution, top concentration 30,000 nM, duplicate; read-out: hTYK2_JH2_Binding (Kd; nM). The protocol:
Binding constants for compounds of the present invention against the JH2 domain were determined by the following protocol for a KINOMEscan® assay (DiscoveRx). A fusion protein of a partial length construct of human TYK2 (JH2domain-pseudokinase) (amino acids G556 to D888 based on reference sequence NP_003322.3) and the DNA binding domain of NFkB was expressed in transiently transfected HEK293 cells. From these HEK 293 cells, extracts were prepared in M-PER extraction buffer (Pierce) in the presence of Protease Inhibitor Cocktail Complete (Roche) and Phosphatase Inhibitor Cocktail Set II (Merck) per manufacturers' instructions. The TYK2(JH2domain-pseudokinase) fusion protein was labeled with a chimeric double-stranded DNA tag containing the NFkB binding site (5′-[…]-3′) fused to an amplicon for qPCR readout, which was added directly to the expression extract (the final concentration of DNA-tag in the binding reaction is 0.1 nM).
The liganded beads were blocked with excess biotin and washed with blocking buffer (SeaBlock (Pierce), 1% BSA, 0.05% Tween 20, 1 mM DTT) to remove unbound ligand and to reduce nonspecific binding.
Extracts were loaded with DNA-tag and diluted into the binding reaction in a two step process. First extracts were diluted 1:100 in 1× binding buffer (PBS/0.05% Tween 20/10 mM DTT/0.1% BSA/2 μg/ml sonicated salmon sperm DNA) containing 10 nM DNA-tag. This dilution was allowed to equilibrate at room temperature for 15 minutes and then subsequently diluted 1:100 in 1× binding buffer. […] Kds were determined using an 11-point 3-fold compound dilution series with three DMSO control points. […] The compounds were then diluted directly into the assays such that the final concentration of DMSO was 0.9%. All reactions performed in polypropylene 384-well plates. Each was a final volume of 0.02 mL. Assays were incubated with shaking for 1 hour at room temperature. Then the beads were pelleted and washed with wash buffer (lx PBS, 0.05% Tween 20) to remove displaced kinase and test compound. […] The qPCR protocol consisted of a 10 minute hot start at 95° C., followed by 35 cycles of 95° C. for 15 seconds, 60° C. for 1 minute.
Kds were determined using an 11-point 3-fold compound dilution series with three DMSO control points. […] The compounds were then diluted directly into the assays such that the final concentration of DMSO was 0.9%. The Kds were determined using a compound top concentration of 30,000 nM. Kd measurements were performed in duplicate.
Binding constants (Kds) were calculated with a standard dose-response curve using the Hill equation: […]
The Hill Slope was set to −1.
For `CNc1cc(-c2cn([C@H]3CCCOC3)c3ncccc23)nc2c(C(=O)N[C@@H]3COC[C@@H]3O)cnn12` [Compound I-61, N-((3R,4R)-4-Hydroxytetrahydrofuran-3-yl)-7-(methylamino)-5-(1-((S)-tetrahydro-2H-pyran-3-yl)-1H-pyrrolo[2,3-b]pyridin-3-yl)pyrazolo[1,5-a]pyrimidine-3-carboxamide], the Kd lay in the range of 1 to 10 nM. For the molecule `CNc1cc(-c2cn(C3CCOCC3)c3ncccc23)nc2c(C(=O)N[C@H]3CCC[C@H](O)C3)cnn12` [Compound I-65, N-((1S,3S)-3-Hydroxycyclohexyl)-7-(methylamino)-5-(1-(tetrahydro-2H-pyran-4-yl)-1H-pyrrolo[2,3-b]pyridin-3-yl)pyrazolo[1,5-a]pyrimidine-3-carboxamide], the Kd was less than 0.2 nM.

On to `CNc1cc(Nc2cccn(C3CC(F)(F)C3)c2=O)nc2c(C(=O)N[C@@H]3CC[C@@H](OC)C3)cnn12` [Compound I-72, 5-((1-(3,3-Difluorocyclobutyl)-2-oxo-1,2-dihydropyridin-3-yl)amino)-N-((1R,3R)-3-methoxycyclopentyl)-7-(methylamino)pyrazolo[1,5-a]pyrimidine-3-carboxamide], for which the Kd fell in the range of 1 to 10 nM.

Consider `CNc1cc(Nc2cccn(C3CC(F)(F)C3)c2=O)nc2c(C(=O)N[C@H]3CC[C@H](OC)C3)cnn12` [Compound I-73, 5-((1-(3,3-Difluorocyclobutyl)-2-oxo-1,2-dihydropyridin-3-yl)amino)-N-((1S,3S)-3-methoxycyclopentyl)-7-(methylamino)pyrazolo[1,5-a]pyrimidine-3-carboxamide], for which the Kd lay within 1 to 10 nM. Consider `CNc1cc(Nc2cccn([C@@H]3CCC[C@@H]3O)c2=O)nc2c(C(=O)N[C@@H]3CC[C@@H](OC)C3)cnn12` [Compound I-78, 5-((1-((1R,2S)-2-Hydroxycyclopentyl)-2-oxo-1,2-dihydropyridin-3-yl)amino)-N-((1R,3R)-3-methoxycyclopentyl)-7-(methylamino)pyrazolo[1,5-a]pyrimidine-3-carboxamide], for which the Kd is 0.2 to 1 nM.

Regarding `CNc1cc(Nc2cccn([C@@H]3CCC[C@@H]3O)c2=O)nc2c(C(=O)N[C@H]3CC[C@H](OC)C3)cnn12` [Compound I-79, 5-((1-((1R,2S)-2-Hydroxycyclopentyl)-2-oxo-1,2-dihydropyridin-3-yl)amino)-N-((1S,3S)-3-methoxycyclopentyl)-7-(methylamino)pyrazolo[1,5-a]pyrimidine-3-carboxamide], the Kd was in the range of 0.2 to 1 nM.

On to `CNc1cc(Nc2cccn([C@@H]3CC[C@@H]3O)c2=O)nc2c(C(=O)N[C@H]3CC[C@H](OC)C3)cnn12` [Compound I-82, 5-((1-((1R,2S)-2-Hydroxycyclobutyl)-2-oxo-1,2-dihydropyridin-3-yl)amino)-N-((1S,3S)-3-methoxycyclopentyl)-7-(methylamino)pyrazolo[1,5-a]pyrimidine-3-carboxamide], for which the Kd is greater than 10 nM. Take `CNc1cc(Nc2cccn(-c3ncco3)c2=O)nc2c(C(=O)N[C@@H]3CC[C@@H](OC)C3)cnn12` [Compound I-83, N-((1R,3R)-3-Methoxycyclopentyl)-7-(methylamino)-5-((1-(oxazol-2-yl)-2-oxo-1,2-dihydropyridin-3-yl)amino)pyrazolo[1,5-a]pyrimidine-3-carboxamide]: the Kd fell in the range of 0.2 to 1 nM. The value for `CNc1cc(Nc2cccn(-c3ncco3)c2=O)nc2c(C(=O)N[C@H]3CC[C@H](OC)C3)cnn12` [Compound I-84, N-((1S,3S)-3-Methoxycyclopentyl)-7-(methylamino)-5-((1-(oxazol-2-yl)-2-oxo-1,2-dihydropyridin-3-yl)amino)pyrazolo[1,5-a]pyrimidine-3-carboxamide] was 0.2 to 1 nM; that for `CNc1cc(Nc2cccn([C@H]3CC[C@H]3O)c2=O)nc2c(C(=O)N[C@@H]3CC[C@@H](OC)C3)cnn12` [Compound I-85, 5-((1-((1S,2R)-2-Hydroxycyclobutyl)-2-oxo-1,2-dihydropyridin-3-yl)amino)-N-((1R,3R)-3-methoxycyclopentyl)-7-(methylamino)pyrazolo[1,5-a]pyrimidine-3-carboxamide] was 1 to 10 nM. The value for `CNc1cc(Nc2cccn([C@H]3CC[C@H]3O)c2=O)nc2c(C(=O)N[C@H]3CC[C@H](OC)C3)cnn12` [Compound I-86, 5-((1-((1S,2R)-2-Hydroxycyclobutyl)-2-oxo-1,2-dihydropyridin-3-yl)amino)-N-((1S,3S)-3-methoxycyclopentyl)-7-(methylamino)pyrazolo[1,5-a]pyrimidine-3-carboxamide] was 1 to 10 nM; that for `CNc1cc(Nc2cccn([C@H]3CCC[C@H]3O)c2=O)nc2c(C(=O)N[C@@H]3CC[C@@H](OC)C3)cnn12` [Compound I-87, 5-((1-((1S,2R)-2-Hydroxycyclopentyl)-2-oxo-1,2-dihydropyridin-3-yl)amino)-N-((1R,3R)-3-methoxycyclopentyl)-7-(methylamino)pyrazolo[1,5-a]pyrimidine-3-carboxamide] was greater than 10 nM. Turning to `CNc1cc(Nc2cccn([C@H]3CCC[C@H]3O)c2=O)nc2c(C(=O)N[C@H]3CC[C@H](OC)C3)cnn12` [Compound I-88, 5-((1-((1S,2R)-2-Hydroxycyclopentyl)-2-oxo-1,2-dihydropyridin-3-yl)amino)-N-((1S,3S)-3-methoxycyclopentyl)-7-(methylamino)pyrazolo[1,5-a]pyrimidine-3-carboxamide], the Kd was greater than 10 nM. As for `CNc1cc(Nc2cccn(C3CC(F)(F)C3)c2=O)nc2c(C(=O)N[C@H]3CCC[C@]3(C)O)cnn12` [Compound I-90, 5-((1-(3,3-Difluorocyclobutyl)-2-oxo-1,2-dihydropyridin-3-yl)amino)-N-((1S,2S)-2-hydroxy-2-methylcyclopentyl)-7-(methylamino)pyrazolo[1,5-a]pyrimidine-3-carboxamide], the Kd was greater than 10 nM.

With `CNc1cc(Nc2cccn(C3CC(F)(F)C3)c2=O)nc2c(C(=O)N[C@@H]3CCC[C@@]3(C)O)cnn12` [Compound I-91, 5-((1-(3,3-Difluorocyclobutyl)-2-oxo-1,2-dihydropyridin-3-yl)amino)-N-((1R,2R)-2-hydroxy-2-methylcyclopentyl)-7-(methylamino)pyrazolo[1,5-a]pyrimidine-3-carboxamide], the Kd is less than 0.2 nM. As to `CNc1cc(Nc2cccn(C3CC(F)(F)C3)c2=O)nc2c(C(=O)N[C@@H]3CCC[C@@](C)(O)C3)cnn12` [Compound I-92, 5-((1-(3,3-Difluorocyclobutyl)-2-oxo-1,2-dihydropyridin-3-yl)amino)-N-((1R,3R)-3-hydroxy-3-methylcyclohexyl)-7-(methylamino)pyrazolo[1,5-a]pyrimidine-3-carboxamide], the Kd was greater than 10 nM. For `CNc1cc(Nc2cccn(C3CC(F)(F)C3)c2=O)nc2c(C(=O)N[C@H]3CCC[C@](C)(O)C3)cnn12` [Compound I-93, 5-((1-(3,3-Difluorocyclobutyl)-2-oxo-1,2-dihydropyridin-3-yl)amino)-N-((1S,3S)-3-hydroxy-3-methylcyclohexyl)-7-(methylamino)pyrazolo[1,5-a]pyrimidine-3-carboxamide], the Kd is 0.2 to 1 nM. As for `CNc1cc(Nc2cccn([C@H]3CC[C@@H]3O)c2=O)nc2c(C(=O)N[C@@H]3CCC[C@@H](OC)C3)cnn12` [Compound I-96, 5-((1-((1S,2S)-2-Hydroxycyclobutyl)-2-oxo-1,2-dihydropyridin-3-yl)amino)-N-((1R,3R)-3-methoxycyclohexyl)-7-(methylamino)pyrazolo[1,5-a]pyrimidine-3-carboxamide], the Kd was in the range of 1 to 10 nM.

By Kd is commonly meant the equilibrium constant for the complex coming apart.
